Reference: ChEMBL document CHEMBL5715954, “Silencing c-Myc translation as a therapeutic strategy through targeting PI3Kδ and CK1ε in hematological malignancies” (Blood, 2017)
Active and inactive are the calls of the source. No cut-off for these calls is given here.

Columns and labels:
PF-382 = assay: Induction of apoptosis in human PF-382 cells assessed as increase in cleaved-PARP expression at 5 uM measured after 24 hrs in presence of bortezomib by Western blot analysis; assay type: functional, cell-based
CLL cell = assay: Induction of apoptosis in human CLL cells assessed as increase in cleaved-PARP expression at 5 uM measured after 24 hrs in presence of bortezomib by Western blot analysis; assay type: functional, cell-based
mTORC1 (Homo sapiens) [1] = biological target: T1, mTORC1 (Homo sapiens) (UniProt P42345+Q8N122+Q9BVC4); assay: Inhibition of mTORC1 in human OCILY7 cells transfected with c-myc-5'-UTR-luciferase construct assessed as reduction in c-myc translation at 3 to 5 uM incubated for 24 hrs in presence of carfilzomib by luciferase reporter gene assay; assay type: cell-based; conditions: dose 3-5 µM
[2] = biological target: T2, Phosphatidylinositol 4,5-bisphosphate 3-kinase catalytic subunit delta isoform (Homo sapiens) (UniProt O00329); assay: Inhibition of PI3Kdelta in human HL-60 cells assessed as reduction in AKT phosphorylation at S473 residue at 1 uM measured after 4 hrs relative to control; assay type: cell-based
T2 sequence (whole entry): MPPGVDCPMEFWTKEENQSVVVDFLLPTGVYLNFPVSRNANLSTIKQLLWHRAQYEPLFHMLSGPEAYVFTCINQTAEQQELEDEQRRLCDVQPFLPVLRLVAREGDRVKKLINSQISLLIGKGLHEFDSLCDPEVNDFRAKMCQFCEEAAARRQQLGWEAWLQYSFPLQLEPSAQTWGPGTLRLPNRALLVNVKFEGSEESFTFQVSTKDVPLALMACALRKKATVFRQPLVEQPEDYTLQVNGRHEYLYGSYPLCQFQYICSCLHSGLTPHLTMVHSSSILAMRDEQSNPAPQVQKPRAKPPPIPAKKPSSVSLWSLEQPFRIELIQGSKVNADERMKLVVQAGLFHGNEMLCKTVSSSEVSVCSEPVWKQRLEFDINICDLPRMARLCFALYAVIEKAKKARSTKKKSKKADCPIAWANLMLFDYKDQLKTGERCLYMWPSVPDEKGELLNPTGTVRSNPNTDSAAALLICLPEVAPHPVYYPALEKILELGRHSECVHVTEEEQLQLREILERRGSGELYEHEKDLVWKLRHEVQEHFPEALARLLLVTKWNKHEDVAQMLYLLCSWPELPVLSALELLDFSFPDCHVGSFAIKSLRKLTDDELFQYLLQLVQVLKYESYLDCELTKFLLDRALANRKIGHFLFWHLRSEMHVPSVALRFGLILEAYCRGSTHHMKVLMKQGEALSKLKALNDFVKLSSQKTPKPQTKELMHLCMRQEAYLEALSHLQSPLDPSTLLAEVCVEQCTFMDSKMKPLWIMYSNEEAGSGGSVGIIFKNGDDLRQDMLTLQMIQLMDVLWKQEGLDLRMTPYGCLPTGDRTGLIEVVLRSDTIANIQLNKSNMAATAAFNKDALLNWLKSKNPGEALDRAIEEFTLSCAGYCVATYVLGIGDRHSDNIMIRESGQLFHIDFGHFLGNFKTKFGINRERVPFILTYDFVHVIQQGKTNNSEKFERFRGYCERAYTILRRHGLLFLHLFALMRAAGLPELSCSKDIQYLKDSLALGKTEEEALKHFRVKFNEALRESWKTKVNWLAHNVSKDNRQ

mTORC1 (Homo sapiens) [3] = biological target: T1, mTORC1 (Homo sapiens); assay: Inhibition of mTORC1 in human CLL cells assessed as reduction in 4E-BP1 phosphorylation at 5 uM measured after 24 hrs in presence of carfilzomib by Western blot analysis; assay type: cell-based; conditions: CLL cell
OCI-Ly7 [4] = assay: Cytotoxicity against human OCILY7 cells transfected with empty vector assessed as reduction in cell viability at 7.5 to 25 uM incubated for 24 hrs by cell-titer glo assay; assay type: functional, cell-based; conditions: dose 7.5-25 µM
NCI-H929 = assay: Cytotoxicity against human NCI-H929 cells transduced with an eIF4E-overexpressing plasmid assessed as reduction in cell viability at 5 uM incubated for 24 hrs in presence of carfilzomib by cell-titer glo assay; assay type: functional, cell-based
mTORC1 (Homo sapiens) [5] = biological target: T1, mTORC1 (Homo sapiens); assay: Inhibition of mTORC1 in human NCI-H929 cells transduced with an eIF4E-overexpressing plasmid assessed as reduction in eIF4E expression at 5 uM incubated for 24 hrs in presence of carfilzomib by Western blot analysis; assay type: cell-based
mTORC1 (Homo sapiens) [6] = biological target: T1, mTORC1 (Homo sapiens); assay: Inhibition of mTORC1 in human NCI-H929 cells assessed as reduction in c-Myc expression at 5 uM measured after 24 hrs in presence of carfilzomib by Western blot analysis; assay type: cell-based
[7] = biological target: T2, Phosphatidylinositol 4,5-bisphosphate 3-kinase catalytic subunit delta isoform (Homo sapiens); assay: Inhibition of PI3Kdelta in human THP-1 cells assessed as reduction in AKT phosphorylation at S473 residue at 1 uM measured after 4 hrs relative to control; assay type: cell-based
OCI-Ly7 [8] = assay: Cytotoxicity against human OCILY7 cells transfected with c-Myc-expressing plasmid (M+) assessed as reduction in cell viability at 7.5 to 25 uM incubated for 24 hrs by cell-titer glo assay; assay type: functional, cell-based; conditions: dose 7.5-25 µM
[9] = Inhibition of PI3Kdelta/CK1epsilon in human OCILY7 cells transfected with c-myc-5'-UTR-luciferase construct assessed as reduction in c-myc translation at 15 uM incubated for 24 hrs by luciferase reporter gene assay relative to control; conditions: OCI-Ly7
[10] = biological target: T3, Casein kinase I isoform epsilon (Homo sapiens, UniProt P49674); assay: Inhibition of CK1epsilon in human LY7 cells assessed as reduction in CK1epsilon autophosphorylation at 10 to 25 uM preincubated for 1 hr followed by addition of PP2A inhibitor calyculin A and measured after 15 to 60 mins by Western blot analysis; assay type: cell-based; conditions: dose 10-25 µM, time lower 75.0 min, time upper […]
Target sequence in this assay (P49674 whole entry, looked up, canonical isoform): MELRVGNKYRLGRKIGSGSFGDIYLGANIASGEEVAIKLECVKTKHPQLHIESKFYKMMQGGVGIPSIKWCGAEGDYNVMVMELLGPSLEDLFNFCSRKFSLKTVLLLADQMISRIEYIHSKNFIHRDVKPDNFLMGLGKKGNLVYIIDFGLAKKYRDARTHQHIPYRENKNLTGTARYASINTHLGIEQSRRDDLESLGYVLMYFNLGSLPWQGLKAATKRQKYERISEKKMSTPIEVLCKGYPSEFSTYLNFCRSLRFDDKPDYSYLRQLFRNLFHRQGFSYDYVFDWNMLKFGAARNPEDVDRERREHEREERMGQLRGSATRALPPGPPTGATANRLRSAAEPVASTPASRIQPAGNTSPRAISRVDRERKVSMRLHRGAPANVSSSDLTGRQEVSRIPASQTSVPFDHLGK

[11] = Cytotoxicity against human PBMC assessed as reduction in cell viability at 2.5 to 5 uM measured after 24 to 72 hrs in presence of carfilzomib by cell-titer glo assay; assay type: toxicity, cell-based; conditions: dose lower 2.5 µM, time lower 24 hrs, dose upper 5 µM, time upper 72 hrs
mTORC1 (Homo sapiens) [12] = biological target: T1, mTORC1 (Homo sapiens); assay: Inhibition of mTORC1 in human OCILY7 cells transfected with empty vector assessed as reduction in endogenous c-Myc expression at 3 to 5 uM incubated for 24 hrs in presence of carfilzomib by Western blot analysis; assay type: cell-based; conditions: dose 3-5 µM
[13] = biological target: T2, Phosphatidylinositol 4,5-bisphosphate 3-kinase catalytic subunit delta isoform (Homo sapiens); assay: Inhibition of PI3Kdelta in human DB cells assessed as reduction in AKT phosphorylation at S473 residue at 1 uM measured after 4 hrs relative to control; assay type: cell-based
[14] = biological target: T3, Casein kinase I isoform epsilon; assay: Inhibition of recombinant human full-length N-terminal GST-tagged CK1epsilon expressed in baculovirus infected Sf9 insect cells using casein as substrate measured after 60 mins by ADP-glo kinase assay
Target sequence in this assay (P49674 whole entry, canonical isoform): as the sequence (P49674 whole entry, looked up, canonical isoform) above

[15] = biological target: T2, Phosphatidylinositol 4,5-bisphosphate 3-kinase catalytic subunit delta isoform (Homo sapiens); assay: Inhibition of PI3Kdelta in human DB cells assessed as reduction in AKT phosphorylation at S473 residue measured after 4 hrs; assay type: cell-based; conditions: dose 10-10000 nM
[16] = biological target: Myc proto-oncogene protein (Homo sapiens) (UniProt P01106); assay: Inhibition of c-Myc in human LY10 cells assessed as reduction in E2F1 expression at 3 uM incubated for 24 hrs in presence of carfilzomib by Western blot analysis; assay type: cell-based
mTORC1 (Homo sapiens) [17] = biological target: T1, mTORC1 (Homo sapiens); assay: Inhibition of mTORC1 in human NCI-H929 cells assessed as reduction in 4E-BP1 phosphorylation at 5 uM measured after 24 hrs by Western blot analysis; assay type: cell-based
mTORC1 (Homo sapiens) [18] = biological target: T1, mTORC1 (Homo sapiens); assay: Inhibition of mTORC1 in human NCI-H929 cells assessed as reduction in c-Myc expression at 5 uM measured after 24 hrs by Western blot analysis; assay type: cell-based

T1 sequence (Q8N122 whole entry, looked up, other chains not shown, canonical isoform): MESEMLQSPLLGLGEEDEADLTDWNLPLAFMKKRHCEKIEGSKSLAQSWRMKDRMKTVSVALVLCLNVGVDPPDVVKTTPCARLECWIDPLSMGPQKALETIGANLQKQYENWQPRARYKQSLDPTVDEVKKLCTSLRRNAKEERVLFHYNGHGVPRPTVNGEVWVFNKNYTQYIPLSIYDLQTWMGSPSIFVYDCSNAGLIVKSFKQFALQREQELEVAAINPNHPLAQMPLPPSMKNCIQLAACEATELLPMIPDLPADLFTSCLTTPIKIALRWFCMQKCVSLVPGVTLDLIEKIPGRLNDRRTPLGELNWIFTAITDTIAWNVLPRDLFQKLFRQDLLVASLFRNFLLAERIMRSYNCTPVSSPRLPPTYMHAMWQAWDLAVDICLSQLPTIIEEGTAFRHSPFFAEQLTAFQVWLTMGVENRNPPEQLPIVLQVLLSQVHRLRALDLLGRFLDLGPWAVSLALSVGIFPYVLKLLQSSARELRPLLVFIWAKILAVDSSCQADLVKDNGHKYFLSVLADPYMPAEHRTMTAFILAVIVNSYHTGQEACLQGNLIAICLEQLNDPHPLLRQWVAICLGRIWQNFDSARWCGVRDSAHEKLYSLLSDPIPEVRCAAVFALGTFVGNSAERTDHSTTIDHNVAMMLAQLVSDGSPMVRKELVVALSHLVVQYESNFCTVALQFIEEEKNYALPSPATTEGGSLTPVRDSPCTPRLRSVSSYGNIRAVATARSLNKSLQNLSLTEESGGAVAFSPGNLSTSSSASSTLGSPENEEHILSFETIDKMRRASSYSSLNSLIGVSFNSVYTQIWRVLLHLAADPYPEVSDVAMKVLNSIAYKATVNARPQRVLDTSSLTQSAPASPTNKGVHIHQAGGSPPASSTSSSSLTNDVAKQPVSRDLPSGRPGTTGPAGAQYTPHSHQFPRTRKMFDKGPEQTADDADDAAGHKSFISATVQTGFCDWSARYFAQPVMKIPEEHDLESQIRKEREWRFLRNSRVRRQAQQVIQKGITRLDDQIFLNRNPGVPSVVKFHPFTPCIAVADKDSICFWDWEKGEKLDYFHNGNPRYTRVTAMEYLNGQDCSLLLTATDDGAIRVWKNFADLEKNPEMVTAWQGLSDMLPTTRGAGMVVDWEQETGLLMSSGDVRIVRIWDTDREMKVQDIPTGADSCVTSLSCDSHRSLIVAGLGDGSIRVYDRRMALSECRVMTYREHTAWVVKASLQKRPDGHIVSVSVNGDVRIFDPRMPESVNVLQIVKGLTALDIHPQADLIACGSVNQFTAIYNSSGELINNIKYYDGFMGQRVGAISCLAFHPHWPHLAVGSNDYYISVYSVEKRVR
T1 sequence (Q9BVC4 whole entry, looked up, other chains not shown, canonical isoform): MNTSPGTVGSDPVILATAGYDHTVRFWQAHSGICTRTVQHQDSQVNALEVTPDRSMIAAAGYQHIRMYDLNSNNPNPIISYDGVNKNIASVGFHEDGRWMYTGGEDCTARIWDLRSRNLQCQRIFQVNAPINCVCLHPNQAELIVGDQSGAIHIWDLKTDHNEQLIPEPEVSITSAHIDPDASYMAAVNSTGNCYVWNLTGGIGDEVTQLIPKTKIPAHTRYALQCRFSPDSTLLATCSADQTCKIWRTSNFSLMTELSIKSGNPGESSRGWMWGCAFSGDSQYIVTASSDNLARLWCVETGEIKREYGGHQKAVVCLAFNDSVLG
Chain of Myc proto-oncogene protein (Homo sapiens) (P01106 whole entry): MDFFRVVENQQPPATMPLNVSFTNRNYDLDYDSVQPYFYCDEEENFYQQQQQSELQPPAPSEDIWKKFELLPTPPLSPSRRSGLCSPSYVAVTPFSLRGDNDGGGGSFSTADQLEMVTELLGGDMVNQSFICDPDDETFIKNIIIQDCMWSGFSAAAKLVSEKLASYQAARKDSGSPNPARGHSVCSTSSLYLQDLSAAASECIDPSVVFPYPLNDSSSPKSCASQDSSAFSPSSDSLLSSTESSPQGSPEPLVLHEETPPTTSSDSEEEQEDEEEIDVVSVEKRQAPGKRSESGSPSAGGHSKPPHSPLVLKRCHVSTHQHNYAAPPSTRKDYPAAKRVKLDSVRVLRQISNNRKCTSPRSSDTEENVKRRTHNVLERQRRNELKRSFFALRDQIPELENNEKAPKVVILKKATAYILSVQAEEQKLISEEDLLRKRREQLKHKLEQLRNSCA

With CC[C@H](Nc1ncnc2[nH]cnc12)c1nc2cccc(F)c2c(=O)n1-c1ccccc1 the Activity (PF-382) was “Active” and the Activity (CLL cell) was “Active”.
With CC(C)Oc1ccc(-c2nn([C@@H](C)c3oc4ccc(F)cc4c(=O)c3-c3cccc(F)c3)c3ncnc(N)c23)cc1F [UMBRALISIB] the inhibition (mTORC1 (Homo sapiens) [1]) was “Active”, the inhibition [2] was 43% and the inhibition (mTORC1 (Homo sapiens) [3]) was “Active”. The Activity (OCI-Ly7 [4]) was “Active”, the Activity (NCI-H929) was “inactive” and the inhibition (mTORC1 (Homo sapiens) [5]) was “inactive”. The inhibition (mTORC1 (Homo sapiens) [6]) was “Active”, the inhibition [7] was 43% and the Activity (OCI-Ly7 [8]) was “inactive”. The inhibition at 15 µM [9] was greater than 50%, the inhibition [10] was “Active” and the Activity [11] was “Non-Toxic”. For the same compound, the inhibition (mTORC1 (Homo sapiens) [12]) was “Active”, the inhibition [13] was 43% and the EC50 [14] was 6 µM. The inhibition [15] was “Dose-Dependent Effect”, the inhibition [16] was “Active” and the inhibition (mTORC1 (Homo sapiens) [17]) was “inactive”. For the same compound, the inhibition (mTORC1 (Homo sapiens) [18]) was “inactive”.
